Assay results from BindingDB's records for doi:10.1038/nchembio.2304 (Novartis Institutes for BioMedical Research, 2017).

How the values were obtained:
Assay in all cases: HMT Assay
[1] = molecular target: Serine/threonine-protein kinase 17B (Homo sapiens, UniProt O94768)
[2] = molecular target: T1, Interleukin-1 receptor-associated kinase 1 [184-712] (Human, UniProt P51617)
T1 construct: 184-712

[3] = molecular target: T2, Receptor-type tyrosine-protein kinase FLT3 [563-993,D835Y] (Human, UniProt P36888, D835Y)
T2 construct: 563-993

[4] = molecular target: Tyrosine-protein kinase Lyn (Homo sapiens, UniProt P07948)
[5] = molecular target: Muscarinic acetylcholine receptor M2 (Homo sapiens, UniProt P08172)
[6] = molecular target: Gamma-aminobutyric acid receptor subunit alpha-1 (Homo sapiens, UniProt P14867)
[7] = molecular target: T3, Protein arginine N-methyltransferase 1 [11-371] (Homo sapiens, UniProt Q99873)
T3 construct: 11-371

[8] = molecular target: Protein kinase C theta type (Homo sapiens, UniProt Q04759)
[9] = molecular target: T4, Mitogen-activated protein kinase kinase kinase 8 [30-404] (Human, UniProt P41279)
T4 construct: 30-404

[10] = molecular target: DNA (cytosine-5)-methyltransferase 1 (Homo sapiens, UniProt P26358)
[11] = molecular target: 5-hydroxytryptamine receptor 1A (Homo sapiens, UniProt P08908)
[12] = molecular target: Acetylcholine receptor subunit alpha (Homo sapiens, UniProt P02708)
[13] = molecular target: Alpha-1A adrenergic receptor (Homo sapiens, UniProt P35348)
Estrogen receptor = Estrogen receptor (Homo sapiens, UniProt P03372)
[14] = molecular target: Serine/threonine-protein kinase 4 (Human, UniProt Q13043)
[15] = molecular target: Mitogen-activated protein kinase kinase kinase kinase 4 (Homo sapiens, UniProt O95819)
[16] = molecular target: Histone-lysine N-methyltransferase SUV39H2 (Human, UniProt Q9H5I1)
[17] = molecular target: Methylosome protein 50/Protein arginine N-methyltransferase 5 (Homo sapiens, UniProt O14744)
[18] = molecular target: Protein kinase C alpha type (Homo sapiens, UniProt P17252)
[19] = molecular target: T5, Fibroblast growth factor receptor 4 [388-802] (Human, UniProt P22455)
T5 construct: 388-802

[20] = molecular target: T6, Fibroblast growth factor receptor 2 [406-821] (Human, UniProt P21802)
T6 construct: 406-821

[21] = molecular target: N-lysine methyltransferase SETD6 (Human, UniProt Q8TBK2)
[22] = molecular target: Histone-lysine N-methyltransferase NSD3 (Homo sapiens, UniProt Q9BZ95)
[23] = molecular target: Protein arginine N-methyltransferase 3 [N508S] (Homo sapiens, UniProt O60678, N508S)
D(1A) dopamine receptor = D(1A) dopamine receptor (Homo sapiens, UniProt P21728)
[24] = molecular target: Sodium-dependent noradrenaline transporter (Homo sapiens, UniProt P23975)
[25] = molecular target: Tyrosine-protein kinase BTK (Homo sapiens, UniProt Q06187)
[26] = molecular target: T7, Tyrosine-protein kinase ABL1 [64-515] (Homo sapiens, UniProt P00519)
T7 construct: 64-515

[27] = molecular target: T8, Rho-associated protein kinase 2 [6-553] (Human, UniProt O75116)
T8 construct: 6-553

[28] = molecular target: N-lysine methyltransferase SMYD2 (Homo sapiens, UniProt Q9NRG4)
Procedure: (§1) All HMT reactions were performed as described previously [Nasveschuk et al., ACS Med. Chem. Lett., 5:378-383].

[29] = molecular target: Histone-lysine N-methyltransferase SMYD3 (Homo sapiens, UniProt Q9H7B4)
Procedure: as §1

[30] = molecular target: Histone-lysine N-methyltransferase, H3 lysine-79 specific (Homo sapiens, UniProt Q8TEK3)
Procedure: as §1

[31] = molecular target: Histone-lysine N-methyltransferase SETDB1 (Homo sapiens, UniProt Q15047)
Procedure: as §1

[32] = molecular target: Histone-lysine N-methyltransferase SETD7 (Homo sapiens, UniProt Q8WTS6)
Procedure: as §1

[33] = molecular target: Histone-lysine N-methyltransferase SETD2 (Homo sapiens, UniProt Q9BYW2)
Procedure: as §1

[34] = molecular target: Histone-lysine N-methyltransferase EHMT2 (Homo sapiens, UniProt Q96KQ7)
Procedure: as §1

[35] = molecular target: Histone-arginine methyltransferase CARM1 (Homo sapiens, UniProt Q86X55)
Procedure: as §1

[36] = molecular target: Histone-lysine N-methyltransferase NSD2 (Homo sapiens, UniProt O96028)
Procedure: as §1

T8 sequence (O75116 6-553): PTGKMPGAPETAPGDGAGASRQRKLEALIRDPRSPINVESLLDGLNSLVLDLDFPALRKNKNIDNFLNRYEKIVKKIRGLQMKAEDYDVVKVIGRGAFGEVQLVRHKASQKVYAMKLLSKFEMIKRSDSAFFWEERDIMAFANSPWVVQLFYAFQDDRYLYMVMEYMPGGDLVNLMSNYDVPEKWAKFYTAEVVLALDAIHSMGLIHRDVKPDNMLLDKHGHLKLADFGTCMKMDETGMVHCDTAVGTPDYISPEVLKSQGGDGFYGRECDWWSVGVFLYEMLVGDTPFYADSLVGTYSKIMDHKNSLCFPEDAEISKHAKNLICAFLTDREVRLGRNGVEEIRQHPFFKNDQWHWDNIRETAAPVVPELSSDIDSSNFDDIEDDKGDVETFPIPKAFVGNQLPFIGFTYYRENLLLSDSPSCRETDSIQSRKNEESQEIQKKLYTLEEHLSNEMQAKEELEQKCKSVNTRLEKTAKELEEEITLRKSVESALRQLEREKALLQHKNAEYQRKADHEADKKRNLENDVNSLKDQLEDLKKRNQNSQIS
Sequence of Muscarinic acetylcholine receptor M2 (P08172 whole entry): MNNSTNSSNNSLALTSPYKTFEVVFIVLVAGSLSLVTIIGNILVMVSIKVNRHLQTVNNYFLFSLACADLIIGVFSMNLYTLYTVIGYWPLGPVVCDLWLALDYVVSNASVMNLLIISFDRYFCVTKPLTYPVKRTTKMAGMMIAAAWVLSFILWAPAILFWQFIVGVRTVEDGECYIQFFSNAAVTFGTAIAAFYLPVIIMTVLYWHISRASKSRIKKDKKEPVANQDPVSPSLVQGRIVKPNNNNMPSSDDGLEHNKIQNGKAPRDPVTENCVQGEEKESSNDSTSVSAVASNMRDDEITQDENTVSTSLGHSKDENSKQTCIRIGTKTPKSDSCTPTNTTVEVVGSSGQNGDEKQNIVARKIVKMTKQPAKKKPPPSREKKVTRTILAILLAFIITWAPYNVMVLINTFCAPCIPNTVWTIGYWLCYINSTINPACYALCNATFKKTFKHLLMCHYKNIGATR
Sequence of Tyrosine-protein kinase BTK (Q06187 whole entry): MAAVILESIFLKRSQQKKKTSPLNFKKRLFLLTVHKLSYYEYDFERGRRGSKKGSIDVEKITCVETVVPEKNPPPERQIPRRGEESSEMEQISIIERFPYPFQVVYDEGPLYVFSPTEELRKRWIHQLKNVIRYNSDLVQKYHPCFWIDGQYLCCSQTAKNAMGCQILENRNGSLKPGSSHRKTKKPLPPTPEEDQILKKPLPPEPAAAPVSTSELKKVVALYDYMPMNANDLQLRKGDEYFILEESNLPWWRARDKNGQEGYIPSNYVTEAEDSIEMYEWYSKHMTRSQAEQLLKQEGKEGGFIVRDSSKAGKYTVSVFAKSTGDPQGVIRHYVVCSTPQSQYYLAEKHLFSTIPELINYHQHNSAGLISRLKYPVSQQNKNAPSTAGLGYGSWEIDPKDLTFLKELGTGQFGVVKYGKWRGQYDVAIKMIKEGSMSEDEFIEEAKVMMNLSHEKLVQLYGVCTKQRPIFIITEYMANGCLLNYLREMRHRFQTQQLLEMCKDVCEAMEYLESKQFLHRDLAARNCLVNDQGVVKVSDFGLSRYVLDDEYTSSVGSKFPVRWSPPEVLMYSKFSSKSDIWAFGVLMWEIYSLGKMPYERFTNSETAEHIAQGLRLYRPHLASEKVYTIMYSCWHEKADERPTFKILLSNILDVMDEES
Sequence of Serine/threonine-protein kinase 4 (Q13043 whole entry): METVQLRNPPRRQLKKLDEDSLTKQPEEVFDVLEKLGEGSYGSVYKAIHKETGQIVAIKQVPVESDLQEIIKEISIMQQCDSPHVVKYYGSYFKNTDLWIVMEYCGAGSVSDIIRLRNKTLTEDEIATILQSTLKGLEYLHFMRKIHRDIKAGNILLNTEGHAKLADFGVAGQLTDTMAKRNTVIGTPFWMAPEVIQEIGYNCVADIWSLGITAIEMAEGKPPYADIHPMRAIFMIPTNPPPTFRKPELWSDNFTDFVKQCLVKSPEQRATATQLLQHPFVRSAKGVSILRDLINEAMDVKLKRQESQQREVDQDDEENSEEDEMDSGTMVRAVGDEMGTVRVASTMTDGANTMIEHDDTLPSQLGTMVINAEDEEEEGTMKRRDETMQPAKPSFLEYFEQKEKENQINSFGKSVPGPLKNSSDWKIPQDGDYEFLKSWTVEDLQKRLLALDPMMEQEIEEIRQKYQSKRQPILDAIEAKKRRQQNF
Sequence of Histone-lysine N-methyltransferase NSD3 (Q9BZ95 whole entry): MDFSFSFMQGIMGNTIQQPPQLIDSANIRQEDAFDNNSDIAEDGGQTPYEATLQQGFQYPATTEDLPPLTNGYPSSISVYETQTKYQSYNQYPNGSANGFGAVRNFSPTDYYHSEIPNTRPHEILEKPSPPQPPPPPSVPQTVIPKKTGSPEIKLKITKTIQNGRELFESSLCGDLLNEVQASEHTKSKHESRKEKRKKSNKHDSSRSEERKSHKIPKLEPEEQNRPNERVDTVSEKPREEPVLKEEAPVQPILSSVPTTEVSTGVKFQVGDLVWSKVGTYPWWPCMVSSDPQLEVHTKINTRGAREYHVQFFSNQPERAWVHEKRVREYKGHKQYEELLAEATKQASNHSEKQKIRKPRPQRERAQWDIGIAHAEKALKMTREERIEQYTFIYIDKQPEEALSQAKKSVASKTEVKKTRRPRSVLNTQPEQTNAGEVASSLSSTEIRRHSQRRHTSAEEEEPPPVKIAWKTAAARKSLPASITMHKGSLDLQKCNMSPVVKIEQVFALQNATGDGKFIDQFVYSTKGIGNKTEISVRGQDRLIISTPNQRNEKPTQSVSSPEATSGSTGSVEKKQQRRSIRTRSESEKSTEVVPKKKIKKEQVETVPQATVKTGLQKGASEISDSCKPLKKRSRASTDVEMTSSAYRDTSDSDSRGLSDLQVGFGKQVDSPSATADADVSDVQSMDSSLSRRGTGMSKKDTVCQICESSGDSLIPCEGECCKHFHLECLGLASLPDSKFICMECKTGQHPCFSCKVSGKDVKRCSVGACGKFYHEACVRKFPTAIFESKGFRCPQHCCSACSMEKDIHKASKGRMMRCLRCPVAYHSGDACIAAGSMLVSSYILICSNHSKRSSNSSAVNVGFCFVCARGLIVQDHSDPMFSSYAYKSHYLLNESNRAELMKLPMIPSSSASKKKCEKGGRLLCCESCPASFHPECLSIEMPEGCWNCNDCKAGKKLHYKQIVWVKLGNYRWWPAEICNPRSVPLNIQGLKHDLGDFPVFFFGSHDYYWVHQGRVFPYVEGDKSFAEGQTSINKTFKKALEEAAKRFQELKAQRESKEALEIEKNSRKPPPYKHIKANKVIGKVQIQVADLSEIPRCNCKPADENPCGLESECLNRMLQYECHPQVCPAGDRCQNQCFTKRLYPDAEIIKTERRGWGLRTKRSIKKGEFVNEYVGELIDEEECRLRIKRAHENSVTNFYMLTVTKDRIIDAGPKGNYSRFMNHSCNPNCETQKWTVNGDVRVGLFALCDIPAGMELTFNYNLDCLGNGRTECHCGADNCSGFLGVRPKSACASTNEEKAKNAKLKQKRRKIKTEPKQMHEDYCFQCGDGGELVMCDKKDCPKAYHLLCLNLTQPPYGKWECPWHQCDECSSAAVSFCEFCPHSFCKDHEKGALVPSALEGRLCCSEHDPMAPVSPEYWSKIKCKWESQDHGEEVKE
T7 sequence (P00519 64-515): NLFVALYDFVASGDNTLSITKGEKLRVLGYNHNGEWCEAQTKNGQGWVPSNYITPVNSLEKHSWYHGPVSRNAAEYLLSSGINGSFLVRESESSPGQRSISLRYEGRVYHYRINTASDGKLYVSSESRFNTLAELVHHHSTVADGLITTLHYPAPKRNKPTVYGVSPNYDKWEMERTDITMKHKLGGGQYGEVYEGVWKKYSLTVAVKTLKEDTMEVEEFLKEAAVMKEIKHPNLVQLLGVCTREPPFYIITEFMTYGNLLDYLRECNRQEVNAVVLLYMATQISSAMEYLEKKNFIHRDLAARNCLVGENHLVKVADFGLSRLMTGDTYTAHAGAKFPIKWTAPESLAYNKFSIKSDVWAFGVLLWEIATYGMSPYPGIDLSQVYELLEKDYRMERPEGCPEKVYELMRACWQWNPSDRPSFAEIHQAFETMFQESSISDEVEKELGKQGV

IC50 [1]: > 10 µM
IC50 [2]: > 10 µM
IC50 [3]: > 10 µM
IC50 [4]: > 10 µM
IC50 [5]: > 30 µM
IC50 [6]: > 30 µM
IC50 [7]: > 100 µM
IC50 [8]: > 10 µM
IC50 [9]: > 10 µM
IC50 [10]: > 100 µM
IC50 [11]: > 30 µM
IC50 [12]: > 30 µM
IC50 [13]: > 30 µM
IC50 (Estrogen receptor): > 30 µM
IC50 [14]: > 10 µM
IC50 [15]: > 10 µM
IC50 [16]: > 100 µM
IC50 [17]: > 100 µM
IC50 [18]: > 10 µM
IC50 [19]: > 10 µM
IC50 [20]: > 10 µM
IC50 [21]: > 100 µM
IC50 [22]: > 100 µM
IC50 [23]: > 100 µM
IC50 (D(1A) dopamine receptor): > 30 µM
IC50 [24]: > 30 µM
IC50 [25]: > 10 µM
IC50 [26]: > 10 µM
IC50 [27]: > 10 µM
IC50 [28]: > 100 µM
IC50 [29]: > 100 µM
IC50 [30]: > 100 µM
IC50 [31]: > 100 µM
IC50 [32]: > 100 µM
IC50 [33]: > 100 µM
IC50 [34]: > 100 µM
IC50 [35]: > 100 µM
IC50 [36]: > 100 µM
Compound: CS(=O)(=O)c1ccc(-c2cnc(NCc3ccco3)n3cnnc23)cc1 [EED226]
